Results as given in patent publication US20080311578A1, “System for screening eukaryotic membrane proteins” (Hydra Biosciences, Inc., priority 2004, published 2008).

Experiments:
Type in all cases: cell-based
[1] = target: T1, human CatSper 1 calcium channel (Homo sapiens, UniProt Q8NEC5); experiment: aequorin calcium flux assay in bacterial cells expressing hCatSper1; conditions: CatSper1 expressed in bacterial cells, FIG. 5
T1 construct: expressed in transfected cells; host or cells: E. coli (Rosetta-Gami B (DE3) pLysS, Novagen), modified pET dual-T7 vector, co-expressed with apo-aequorin
T1 sequence (Q8NEC5 1-780): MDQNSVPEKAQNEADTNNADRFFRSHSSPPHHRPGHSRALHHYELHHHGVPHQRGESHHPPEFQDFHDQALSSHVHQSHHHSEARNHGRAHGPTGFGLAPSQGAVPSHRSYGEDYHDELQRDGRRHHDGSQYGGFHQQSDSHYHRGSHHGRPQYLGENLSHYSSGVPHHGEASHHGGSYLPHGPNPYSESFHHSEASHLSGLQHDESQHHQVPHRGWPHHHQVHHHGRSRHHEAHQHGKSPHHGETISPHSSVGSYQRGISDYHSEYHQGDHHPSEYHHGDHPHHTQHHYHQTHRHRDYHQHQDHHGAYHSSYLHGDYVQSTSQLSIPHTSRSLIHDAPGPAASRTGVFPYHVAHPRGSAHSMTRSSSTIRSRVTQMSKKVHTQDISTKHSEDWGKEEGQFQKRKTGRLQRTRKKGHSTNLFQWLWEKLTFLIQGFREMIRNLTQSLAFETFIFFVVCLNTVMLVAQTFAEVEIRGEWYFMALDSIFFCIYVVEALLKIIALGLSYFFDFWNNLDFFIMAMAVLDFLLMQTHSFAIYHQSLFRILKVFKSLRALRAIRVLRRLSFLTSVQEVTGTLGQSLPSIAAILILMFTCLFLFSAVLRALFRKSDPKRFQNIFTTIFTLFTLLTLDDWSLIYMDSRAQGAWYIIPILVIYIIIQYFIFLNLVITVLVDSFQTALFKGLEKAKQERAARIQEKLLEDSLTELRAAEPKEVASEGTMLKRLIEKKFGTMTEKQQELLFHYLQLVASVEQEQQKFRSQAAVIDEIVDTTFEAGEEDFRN
Experimental: (§1) 1) 0.5-2 mL of an overnight bacteria (already transformed with a nucleic acid construct or composition encoding a eukaryotic Calcium ion channel and an aequorin marker) culture is innoculated into 25 mL of LB-Amp;
(§2) 2) Bacteria are grown to an OD (optical density) of 0.6;
(§3) 3) 1 mM IPTG added for 2-hour induction;
(§4) 4) Bacteria are spun down, resuspended in ½ volume of nominally divalent free ringers and loaded with coelenterazine;
(§5) 5) Bacteria are rinsed and loaded into 96 well plate ([…]);
(§6) 6) Plate is put in a plate reader, e.g., a Wallac Victor 3;
(§7) 7) Plate is shaken for 2 sec then rested for 5 seconds;
(§8) 8) 10 reads are taken 1 second apart;
(§9) 9) 5 μL of 20 mM CaCl2 is injected;
(§10) 10) 50 reads are taken 1 second apart;
(§11) Note: When a blocker is present, it is added before the plate is put in the reader.
(§12) A further indicator of the functional activity of the ion channel is whether its activity is sensitive to treatment with agonistic or inhibitory agents. FIG. 5 summarizes experiments conducted to address this issue. […] Furthermore, the calcium-flux mediating activity of the channels is inhibited following addition of the calcium channel inhibitor, lanthanum.

[2] = target: T2, rat TrpV1 calcium channel (Rattus norvegicus, UniProt O35433); experiment: aequorin calcium flux assay in bacterial cells expressing rat TrpV1
T2 construct: expressed in transfected cells; host or cells: E. coli (Rosetta-Gami B (DE3) pLysS, Novagen), dual-T7 expression plasmid, co-expressed with aequorin
Experimental: as §1, §2, §3, §4, §5, §6, §7, §8, §9, §10, §11, §12
(§13) The Trp channel blocker ruthenium red inhibits TrpV1 mediated calcium flux in bacterial cells or CHO cells.

[3] = target: T3, rat TrpV1 (Rattus norvegicus, UniProt O35433); experiment: TrpV1 mediated calcium flux in CHO cells; conditions: FIG. 8
T3 construct: expressed in transfected cells; host or cells: CHO cells
Text: as §13

T2 sequence (O35433 whole entry): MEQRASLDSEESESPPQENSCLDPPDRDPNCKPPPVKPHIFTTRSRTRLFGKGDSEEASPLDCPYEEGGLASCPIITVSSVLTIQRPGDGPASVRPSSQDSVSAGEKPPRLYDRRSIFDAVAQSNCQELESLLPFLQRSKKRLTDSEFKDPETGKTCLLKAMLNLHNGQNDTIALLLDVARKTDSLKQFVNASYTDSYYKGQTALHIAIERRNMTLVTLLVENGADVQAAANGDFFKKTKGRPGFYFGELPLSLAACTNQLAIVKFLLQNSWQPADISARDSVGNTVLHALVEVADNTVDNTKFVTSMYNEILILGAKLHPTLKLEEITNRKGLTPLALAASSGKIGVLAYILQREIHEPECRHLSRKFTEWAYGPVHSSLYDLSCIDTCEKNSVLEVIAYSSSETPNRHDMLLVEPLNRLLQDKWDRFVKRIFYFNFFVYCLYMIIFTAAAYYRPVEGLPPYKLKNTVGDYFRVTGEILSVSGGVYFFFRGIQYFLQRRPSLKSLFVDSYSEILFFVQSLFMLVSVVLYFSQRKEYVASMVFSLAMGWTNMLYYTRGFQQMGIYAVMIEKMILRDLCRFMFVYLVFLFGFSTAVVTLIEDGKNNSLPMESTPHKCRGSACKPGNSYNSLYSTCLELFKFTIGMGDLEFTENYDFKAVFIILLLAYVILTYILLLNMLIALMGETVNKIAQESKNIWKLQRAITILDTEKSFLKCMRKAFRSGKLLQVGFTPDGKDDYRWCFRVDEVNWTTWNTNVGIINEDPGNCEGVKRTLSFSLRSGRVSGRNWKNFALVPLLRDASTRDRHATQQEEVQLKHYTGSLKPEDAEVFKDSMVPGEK
T3 sequence (O35433 whole entry): as above

Structure (SMILES): [La] [lanthanum]
- inhibition of calcium-flux mediating activity of the channel [1]: inhibited in a dose dependent fashion
- inhibition of calcium-flux mediating activity of the channel ([2]; TrpV1 expressed in bacterial cells, FIG. 5): inhibited in a dose dependent fashion

Structure (SMILES): N.N.N.N.N.N.N.N.N.N.N.N.N.N.[Cl-].[Cl-].[Cl-].[Cl-].[Cl-].[Cl-].[O-2].[O-2].[Ru+3].[Ru+3].[Ru+4] [ruthenium red]
- potency (IC50) in bacterial cells compared with CHO cells ([2]; bacterial cells vs CHO cells, FIG. 8): somewhat less potent
- inhibition of TrpV1 mediated calcium flux ([2]; bacterial cells, FIG. 8): inhibits
- calculated Hill slope values, CHO cells vs bacterial cells ([2]; comparison between the CHO cells and the bacterial cells, FIG. 8): not significantly different
- inhibition of TrpV1 mediated calcium flux [3]: inhibits
